Source: publication PMC12703733, “Probing Guanidino Pendant or Bridged Groups in Cyclic Antimicrobial Peptides Derived from Temporin L: A Strategy to Improve Efficacy against Gram-Negative Bacteria” (Journal of Medicinal Chemistry, 2025)
In brackets after ≈: the same amount, converted by molar mass. Where two headings read alike, the source gives them in different places. Bridge positions count the residues as written; N and C are the ends. Square brackets hold non-standard residues; d marks the D form. Peptide text beside a SMILES is read from it. Pro(cis-4-guanidino) = NC(N)=N[C@@H]1CN[C@H](C(=O)O)C1

Columns and labels:
in vitro = in vitro ADME
Method: Peptide stability was evaluated by modifying previously described procedures. , The assays were performed in human serum and in the presence of proteolytic enzymes such as trypsin and chymotrypsin. For human serum stability, 2 mM peptide stock solutions were prepared in water and mixed with human serum (from male AB plasma, USA origin, sterile-filtered, Merck/Sigma-Aldrich, USA) to obtain a final concentration of 200 μM [human plasma/stock solution (9:1, v/v)]. The mixtures were incubated at 37 ± 1 °C, and 50 μL aliquots were taken at predetermined time intervals (0, 1, 2, 4, 8, and 24 h). Protease activity was quenched by adding 100 μL of acetonitrile (MeCN). The resulting cloudy suspensions were cooled to 4 °C for 30 min and centrifugated at 12,000 rpm for 10 min to remove the serum proteins. Then, the supernatants were analyzed by analytical HPLC (Shimadzu Nexera Liquid Chromatograph LC-30AD) which was equipped with a Phenomenex Kinetex reversed-phase column (C18, 5 μm, 100 Å, 150 mm × 4.6 mm) with a flow rate of 1 mL/min using a gradient of MeCN (0.1% TFA) in water (0.1% TFA), from 10 to 70% over 15 min, and UV detection at 220 nm. For enzyme stability, each peptide peptide (200 μM) was incubated with trypsin (0.5 μM) in PBS 1× (pH 7.2) or with chymotrypsin (0.005 μM) in Tris–HCl (100 mM, pH 7.8). Samples (50 μL) were collected at 0, 1, 2, 4, and 24 h, quenched with 0.5% TFA in water, and analyzed by HPLC under chromatographic conditions as described above. All experiments were conducted in triplicate. The percentage of intact peptides at each time point was determined by integrating the corresponding HPLC peak areas.

[1] = type: cell-based; conditions: for viability at 12.5 µM: cell viability
Method: (§1) For the evaluation of peptides’ cytotoxicity, the human immortalized keratinocytes (HaCaT cells), purchased from AddexBio (San Diego, CA, USA), and BEAS-2B were used. HaCaT cells were cultured in Dulbecco’s modified Eagle’s medium supplemented with 4 mM glutamine (DMEM), 10% heat-inactivated fetal bovine serum (FBS), and 0.1 mg/mL of penicillin and streptomycin, at 37 °C and 5% CO2. BEAS-2B cells were cultured in RPMI, supplemented with 2 mM glutamine (DMEM), 10% heat-inactivated fetal bovine serum (FBS), 1 mM sodium pyruvate, and 0.1 mg/mL of penicillin and streptomycin, at 37 °C and 5% CO2. Cytotoxicity was tested in vitro using a colorimetric assay that relies on the intracellular reduction of the yellow 3-(4,5-dimethylthiazol-2-yl)-2,5-diphenyltetrazolium bromide salt (MTT) by mitochondrial dehydrogenases of metabolically active cells in formazan crystals (purple). About 4 × 10^4 HaCaT and BEAS-2B cells, suspended in DMEM supplemented with 2% FBS, were plated in triplicate wells of a 96-well microtiter plate. The plate was incubated overnight at 37 °C and 5% CO2. Then, the cells were treated with different concentrations of the peptide (from 100 to 3.12 μM) in a fresh serum-free medium for 2 h and for a longer time (24 h). Following peptide treatment, the medium was removed, and MTT (0.5 mg/mL) solution in Hank’s buffer (136 mM NaCl, 4.2 mM Na2HPO4, 4.4 mM KH2PO4, 5.4 mM KCl, 4.1 mM NaHCO3, pH 7.2, supplemented with 20 mM D-glucose) was added to each well of the plate, that was then incubated for 4 h at 37 °C and 5% CO2. The purple formazan crystals were dissolved using acidified 2-propanol and a microplate reader (Infinite M200; Tecan, Salzburg, Austria) was used to measure the absorbance of each well at 570 nm. The percentage of cell viability was calculated compared to the control, which consisted of cells without any peptide treatment (corresponding to 100% viability) and all data represent the mean of three independent experiments ± SEM.

circular dichroism = conditions: water; pH ns; 25 °C; 150 uM
[2] = type: cell-based, human; conditions: human; for viability at 2 h, 3.12 µM / viability at 2 h, 6.25 µM / viability at 2 h, 12.5 µM / viability at 2 h, 25 µM / viability at 2 h, 50 µM / viability at 2 h, 100 µM / viability at 24 h, 3.12 µM / viability at 24 h, 6.25 µM / viability at 24 h, 12.5 µM / viability at 24 h, 25 µM / viability at 24 h, 50 µM / viability at 24 h, 100 µM: Cell viability (%)
Method: as §1

E. faecalis ATCC 29212 = assay: microbe, parasite or virus in culture; type: cell-based; conditions: ATCC 29212
Method: (§2) Bacterial strains used in this study were the Gram-positive S. aureus ATCC 25923, S. epidermidis ATCC 12228, B. megaterium BM11, S. [NT] 27591, E. faecalis ATCC 29212 and the Gram-negative E. coli ATCC 25922, P. aeruginosa ATCC 27853, A. baumannii ATCC 19606, E. coli D21 and P. aeruginosa PAO1. […] Bacterial cells in the mid log phase were diluted in Muller Hinton (MH) at a concentration of 2 × 10^6 cell/mL. […] Ciprofloxacin was used as antibiotic control. The plate was then incubated at 37 °C. MICs were obtained from three identical readings of four independent experiments.

E. coli D21 = assay: microbe, parasite or virus in culture; type: cell-based; conditions: D21
Method: as §2

[3] = tested on: S. epidermidis ATCC 12228; assay: microbe, parasite or virus in culture; type: cell-based; conditions: ATCC 12228
Method: as §2

B. megaterium BM11 = assay: microbe, parasite or virus in culture; type: cell-based; conditions: BM11
Method: as §2

P. aeruginosa ATCC 27853 = assay: microbe, parasite or virus in culture; type: cell-based; conditions: ATCC 27853
Method: as §2

A. baumannii ATCC 19606 = assay: microbe, parasite or virus in culture; type: cell-based; conditions: ATCC 19606
Method: as §2

S. agalactiae ATCC 27591 = assay: microbe, parasite or virus in culture; type: cell-based; conditions: ATCC 27591
Method: as §2

S. aureus ATCC 25923 = assay: microbe, parasite or virus in culture; type: cell-based; conditions: ATCC 25923
Method: as §2

E. coli ATCC 25922 = assay: microbe, parasite or virus in culture; type: cell-based; conditions: ATCC 25922
Method: as §2

[4] = background value; cited from earlier work
[5] = isolated enzyme chymotrypsin, pH 7.8
[6] = isolated enzyme trypsin, pH 7.2

CC[C@H](C)[C@H](NC(=O)[C@H](CCCNC(=N)N)NC(=O)[C@H]1CCC(=O)NCCCC[C@H](NC(=O)[C@H](Cc2ccccc2)NC(=O)[C@H](Cc2c[nH]c3ccccc23)NC(=O)[C@@H]2C[C@H](NC(=N)N)CN2C(=O)[C@@H](NC(=O)[C@@H](N)Cc2ccccc2)C(C)C)C(=O)N[C@@H](CCCCN)C(=O)N[C@@H](Cc2ccccc2)C(=O)N[C@H](CC(C)C)C(=O)N1)C(=O)N[C@@H](CC(C)C)C(N)=O [Peptide 7, FV(4-guanidino)PWF[KKFle]RIL] (H-FV[Pro(cis-4-guanidino)]WFKKF[dL][dE]RIL-NH2; lactam 6-10) showed a remaining at 4 h, 200 μM (in vitro; [5]) of roughly 20%, a remaining at 4 h, 200 μM (in vitro; [6]) of 10% and a viability at 2 h, 3.12 µM ([1]; Cell viability (%)) of 105%. For the same compound, the viability at 2 h, 6.25 µM ([1]; Cell viability (%)) was 117%, the viability at 2 h, 12.5 µM ([1]; Cell viability (%)) was 80% and the viability at 2 h, 25 µM ([1]; Cell viability (%)) was 28%. The viability at 2 h, 50 µM ([1]; Cell viability (%)) was 6%, the viability at 24 h, 3.12 µM ([1]; Cell viability (%)) was 111% and the viability at 24 h, 6.25 µM ([1]; Cell viability (%)) was 104%. It also gave a viability at 24 h, 12.5 µM ([1]; Cell viability (%)) of 90%, a viability at 24 h, 25 µM ([1]; Cell viability (%)) of 34% and a viability at 24 h, 50 µM ([1]; Cell viability (%)) of 9%. It also gave a viability at 24 h, 100 µM ([1]; Cell viability (%)) of 4%, a viability at 12.5 µM [1] of roughly 85% and a helicity (circular dichroism) of 1%. For the same compound, the CC50 at 24 h [2] was 37 µM, the viability at 2 h, 3.12 µM [2] was 101% and the viability at 2 h, 6.25 µM [2] was 100%. The viability at 2 h, 12.5 µM [2] was 102%, the viability at 2 h, 25 µM [2] was 72% and the viability at 2 h, 50 µM [2] was 16%. The viability at 2 h, 100 µM [2] was 8%, the viability at 24 h, 3.12 µM [2] was 99 ± 5% and the viability at 24 h, 6.25 µM [2] was 98 ± 1%. It also gave a viability at 24 h, 12.5 µM [2] of 95 ± 4%, a viability at 24 h, 25 µM [2] of 85 ± 2% and a viability at 24 h, 50 µM [2] of 18 ± 3%. The viability at 24 h, 100 µM [2] was 2 ± 1%, the MIC (E. faecalis ATCC 29212) was 12.5 µM (≈ 22 µg/mL) and the MIC (E. coli D21) was 3.12 µM (≈ 5.49 µg/mL). For the same compound, the MIC [3] was 3.12 µM (≈ 5.49 µg/mL), the MIC (B. megaterium BM11) was 0.78 µM (≈ 1.37 µg/mL) and the MIC (P. aeruginosa ATCC 27853) was 12.5 µM (≈ 22 µg/mL). It also gave an MIC (A. baumannii ATCC 19606) of 3.12 µM (≈ 5.49 µg/mL), an MIC (S. agalactiae ATCC 27591) of 1.56 µM (≈ 2.75 µg/mL) and an MIC (S. aureus ATCC 25923) of 6.25 µM (≈ 11 µg/mL). The MIC (E. coli ATCC 25922) was 3.12 µM (≈ 5.49 µg/mL).

For CC[C@H](C)[C@H](NC(=O)[C@H](CCCNC(=N)N)NC(=O)[C@H]1CCCCNC(=N)NCCCC[C@H](NC(=O)[C@H](Cc2ccccc2)NC(=O)[C@H](Cc2c[nH]c3ccccc23)NC(=O)[C@@H]2CCCN2C(=O)[C@@H](NC(=O)[C@@H](N)Cc2ccccc2)C(C)C)C(=O)N[C@@H](CCCCN)C(=O)N[C@@H](Cc2ccccc2)C(=O)N[C@H](CC(C)C)C(=O)N1)C(=O)N[C@@H](CC(C)C)C(N)=O [Peptide 12, FVPWF{KKFlk}RIL], the remaining at 4 h, 200 μM (in vitro; [5]) was roughly 40%, the remaining at 4 h, 200 μM (in vitro; [6]) was roughly 80% and the remaining at 24 h, 200 μM (in vitro; [6]) was roughly 35%. For the same compound, the viability at 2 h, 3.12 µM ([1]; Cell viability (%)) was 106%, the viability at 2 h, 6.25 µM ([1]; Cell viability (%)) was 104% and the viability at 2 h, 12.5 µM ([1]; Cell viability (%)) was 56%. It also gave a viability at 2 h, 25 µM ([1]; Cell viability (%)) of 14%, a viability at 2 h, 50 µM ([1]; Cell viability (%)) of 4% and a viability at 2 h, 100 µM ([1]; Cell viability (%)) of 4%. The viability at 24 h, 3.12 µM ([1]; Cell viability (%)) was 93%, the viability at 24 h, 6.25 µM ([1]; Cell viability (%)) was 86% and the viability at 24 h, 12.5 µM ([1]; Cell viability (%)) was 66%. The viability at 24 h, 25 µM ([1]; Cell viability (%)) was 14%, the viability at 24 h, 100 µM ([1]; Cell viability (%)) was 0% and the viability at 12.5 µM [1] was roughly 60%. For the same compound, the helicity (circular dichroism) was 63%, the CC50 at 24 h [2] was 19.6 µM and the viability at 2 h, 3.12 µM [2] was 101%. It also gave a viability at 2 h, 6.25 µM [2] of 103%, a viability at 2 h, 12.5 µM [2] of 88% and a viability at 2 h, 25 µM [2] of 47%. It also gave a viability at 2 h, 50 µM [2] of 11%, a viability at 2 h, 100 µM [2] of 10% and a viability at 24 h, 3.12 µM [2] of 100 ± 1%. For the same compound, the viability at 24 h, 6.25 µM [2] was 101 ± 2%, the viability at 24 h, 12.5 µM [2] was 90 ± 4% and the viability at 24 h, 25 µM [2] was 28 ± 4%. It also gave a viability at 24 h, 50 µM [2] of 2 ± 1%, a viability at 24 h, 100 µM [2] of 3 ± 1% and an MIC (E. faecalis ATCC 29212) of 6.25 µM (≈ 10.9 µg/mL). It also gave an MIC (E. coli D21) of 3.12 µM (≈ 5.45 µg/mL), an MIC [3] of 1.56 µM (≈ 2.72 µg/mL) and an MIC (B. megaterium BM11) of 0.39 µM (≈ 0.681 µg/mL). The MIC (P. aeruginosa ATCC 27853) was 12.5 µM (≈ 21.8 µg/mL), the MIC (A. baumannii ATCC 19606) was 1.56 µM (≈ 2.72 µg/mL) and the MIC (S. agalactiae ATCC 27591) was 1.56 µM (≈ 2.72 µg/mL). The MIC (S. aureus ATCC 25923) was 6.25 µM (≈ 10.9 µg/mL) and the MIC (E. coli ATCC 25922) was 6.25 µM (≈ 10.9 µg/mL).

In the case of N=C(N)NCCC[C@H](N)C(=O)O [arginine], the “pK a1” value [4] is given as 2.18, the “pK a2” value [4] is given as 9.09 and the “pK a3” value [4] is given as 13.20.
